What was measured:
ABUTH [1] = test: Pre-emergence herbicidal action against ABUTH; assay type: in vivo, Abutilon theophrasti
In short: (§1)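 Greenhouse pots of sandy loam held seeds covered with soil, onto which the compound was applied before emergence. An aqueous suspension or emulsion of WP or EC was used at 600 to 800 l/ha with 0.2% wetting agent. Percent damage was judged visually at 3 weeks.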

ALOMY [2] = test: Pre-emergence herbicidal action against ALOMY; assay type: in vivo, Alopecurus myosuroides
In short: as §1

AMARE [3] = test: Pre-emergence herbicidal action against AMARE; assay type: in vivo, Amaranthus retroflexus
In short: as §1

AVEFA = test: Pre-emergence herbicidal action against AVEFA; assay type: in vivo, Avena fatua
In short: as §1

ECHCG [4] = test: Pre-emergence herbicidal action against ECHCG; assay type: in vivo, Echinochloa crus-galli; details: 80 g/ha
In short: as §1

MATIN [5] = test: Pre-emergence herbicidal action against MATIN; assay type: in vivo, Matricaria inodora
In short: as §1

PHBPU [6] = test: Pre-emergence herbicidal action against PHBPU; assay type: in vivo, Pharbitis purpurea; details: dosage 80 g/ha
In short: as §1

POLCO = test: Pre-emergence herbicidal action against POLCO; assay type: in vivo, Polygonum convolvulus; details: dosage 80 g/ha
In short: as §1

SETVI [7] = test: Pre-emergence herbicidal action against SETVI; assay type: in vivo, Setaria viridis
In short: as §1

VERPE [8] = test: Pre-emergence herbicidal action against VERPE; assay type: in vivo, Veronica persica
In short: as §1

VIOTR [9] = test: Pre-emergence herbicidal action against VIOTR; assay type: in vivo, Viola tricolor
In short: as §1

ABUTH [10] = test: Post-emergence herbicidal action against ABUTH; assay type: in vivo, Abutilon theophrasti; details: visual assessment about 3 weeks after treatment vs untreated controls
In short: (§2)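 A WP or EC formulation diluted in water with 0.2% wetting agent was sprayed at 600 to 800 l/ha onto one-leaf-stage plants grown in sandy loam. About 3 weeks later, action was rated visually in percent, 100% being dead plants.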

ALOMY [11] = test: Post-emergence herbicidal action against ALOMY; assay type: in vivo, Alopecurus myosuroides; details: dosage 20 g/ha, visual assessment about 3 weeks after treatment vs untreated controls
In short: as §2

AMARE [12] = test: Post-emergence herbicidal action against AMARE; assay type: in vivo, Amaranthus retroflexus; details: 20 g/ha, visual assessment about 3 weeks after treatment, 100% = plants have died, 0% = like control plants
In short: as §2

ECHCG [13] = test: Post-emergence herbicidal action against ECHCG; assay type: in vivo, Echinochloa crus-galli
In short: as §2

MATIN [14] = test: Post-emergence herbicidal action against MATIN; assay type: in vivo, Matricaria inodora; details: dosage 20 g/ha
In short: as §2

PHBPU [15] = test: Post-emergence herbicidal action against PHBPU; assay type: in vivo, Pharbitis purpurea; details: dosage 20 g/ha
In short: as §2

SETVI [16] = test: Post-emergence herbicidal action against SETVI; assay type: in vivo, Setaria viridis
In short: as §2

VERPE [17] = test: Post-emergence herbicidal action against VERPE; assay type: in vivo, Veronica persica
In short: as §2

VIOTR [18] = test: Post-emergence herbicidal action against VIOTR; assay type: in vivo, Viola tricolor
In short: as §2

[19] = 80 g/ha, scored visually after 3 weeks vs untreated controls (100% = plants have died, 0% = like control plants)
[20] = 20 g/ha, scored visually after 3 weeks, 100% = plants have died, 0% = like control plants
[21] = Setaria viridis, 504 h, dosage 20 g/ha

**Q.** For CCc1c(C(=O)Nc2nnnn2C)ccc(C(F)(F)F)c1C(=O)NC(C)C1CC1 (centres unmarked) [Example 1-341], which “Pre-emergence action against ABUTH (herbicidal activity)” value (ABUTH [1]; [19]) is on record?
**A.** 100%

**Q.** And the “Pre-emergence action against ABUTH (herbicidal activity in percent)” value (ABUTH [1]; dosage 20 g/ha, scored visually after 3 weeks vs untreated controls, 100% = plants have died, 0% = like control plants)?
**A.** 100%

**Q.** What about the “Pre-emergence action against ALOMY” value (ALOMY [2]; [20]) of the same compound?
**A.** 80%

**Q.** And the “Pre-emergence action against ALOMY (herbicidal activity)” value (ALOMY [2]; 80 g/ha, pre-emergence, scored visually after 3 weeks vs untreated controls (100% = plants have died, 0% = like control plants))?
**A.** 90%

**Q.** What about the “Pre-emergence action against AMARE in %” value (AMARE [3]; 20 g/ha, scored visually after 3 weeks vs untreated controls, 100% = plants have died, 0% = like control plants) of the same compound?
**A.** 100%

**Q.** What about the “Pre-emergence action against AMARE in %” value (AMARE [3]; [19]) of the same compound?
**A.** 100%

**Q.** And the “Pre-emergence action against AVEFA” value (AVEFA; [20])?
**A.** 80%

**Q.** And the “Pre-emergence action against AVEFA in %” value (AVEFA; 80 g/ha, pre-emergence)?
**A.** 90%

**Q.** And the “Pre-emergence action against ECHCG in %” value (ECHCG [4])?
**A.** 90%

**Q.** And the “Pre-emergence action against MATIN in %” value (MATIN [5]; dosage 20 g/ha)?
**A.** 100%

**Q.** And the “Pre-emergence action against MATIN in %” value (MATIN [5]; dosage 80 g/ha)?
**A.** 100%

**Q.** What about the “Pre-emergence action against PHBPU in %” value (PHBPU [6]) of the same compound?
**A.** 80%

**Q.** What about the “Pre-emergence action against POLCO in %” value (POLCO) of the same compound?
**A.** 80%

**Q.** What about the “Pre-emergence action against SETVI in %” value (SETVI [7]; dosage 20 g/ha) of the same compound?
**A.** 80%

**Q.** What about the “Pre-emergence action against SETVI in %” value (SETVI [7]; dosage 80 g/ha) of the same compound?
**A.** 100%

**Q.** What about the “Pre-emergence action against VERPE in %” value (VERPE [8]; dosage 20 g/ha) of the same compound?
**A.** 80%

**Q.** What about the “Pre-emergence action against VERPE in %” value (VERPE [8]; dosage 80 g/ha) of the same compound?
**A.** 90%

**Q.** And the “Pre-emergence action against VIOTR in %” value (VIOTR [9]; dosage 20 g/ha)?
**A.** 100%

**Q.** What about the “Pre-emergence action against VIOTR in %” value (VIOTR [9]; dosage 80 g/ha) of the same compound?
**A.** 100%

**Q.** What about the “Post-emergence action against ABUTH in %” value (ABUTH [10]; dosage 20 g/ha) of the same compound?
**A.** 80%

**Q.** What about the “Post-emergence action against ALOMY in %” value (ALOMY [11]) of the same compound?
**A.** 80%

**Q.** What about the “Post-emergence action at 20 g/ha against AMARE in %” value (AMARE [12]) of the same compound?
**A.** 100%

**Q.** And the “Post-emergence action against ECHCG in %” value (ECHCG [13]; dosage 5 g/ha)?
**A.** 80%

**Q.** And the “Post-emergence action against ECHCG in %” value (ECHCG [13]; dosage 20 g/ha)?
**A.** 90%

**Q.** And the “Post-emergence action against MATIN in %” value (MATIN [14])?
**A.** 80%

**Q.** And the “Post-emergence action against PHBPU in %” value (PHBPU [15])?
**A.** 80%

**Q.** What about the “Post-emergence action against SETVI in %” value (SETVI [16]; dosage 20 g/ha) of the same compound?
**A.** 80%

**Q.** What about the “Post-emergence action against VERPE in %” value (VERPE [17]; 5 g/ha) of the same compound?
**A.** 80%

**Q.** What about the “Post-emergence action against VERPE in %” value (VERPE [17]; 20 g/ha) of the same compound?
**A.** 90%

**Q.** What about the “Post-emergence action against VIOTR in %” value (VIOTR [18]; 20 g/ha) of the same compound?
**A.** 80%

**Q.** For CSc1c(C(=O)Nc2nnnn2C)ccc(C(F)F)c1C(=O)NC1CC1 [Example 1-89], which pest or weed control at 80 g/ha (ABUTH [1]; Abutilon theophrasti, 504 h, 80 g/ha, scored visually after 3 weeks vs untreated controls (100% = plants have died, 0% = like control plants)) is on record?
**A.** 100%

**Q.** What about the pest or weed control at 20 g/ha (ABUTH [1]; Abutilon theophrasti, 504 h, dosage 20 g/ha, scored visually after 3 weeks vs untreated controls, 100% = plants have died, 0% = like control plants, read-out: Pre-emergence action against ABUTH (herbicidal activity in percent)) of the same compound?
**A.** 90%

**Q.** What about the pest or weed control at 80 g/ha (ALOMY [2]; Alopecurus myosuroides, 504 h, 80 g/ha, pre-emergence, scored visually after 3 weeks vs untreated controls (100% = plants have died, 0% = like control plants)) of the same compound?
**A.** 90%

**Q.** And the pest or weed control at 20 g/ha (AMARE [3]; Amaranthus retroflexus, 504 h, 20 g/ha, scored visually after 3 weeks vs untreated controls, 100% = plants have died, 0% = like control plants)?
**A.** 100%

**Q.** What about the pest or weed control at 80 g/ha (AMARE [3]; Amaranthus retroflexus, 504 h, 80 g/ha, scored visually after 3 weeks vs untreated controls, 100% = plants have died, 0% = like control plants) of the same compound?
**A.** 100%

**Q.** And the pest or weed control at 80 g/ha (AVEFA; Avena fatua, 504 h, 80 g/ha, pre-emergence)?
**A.** 90%

**Q.** And the pest or weed control at 80 g/ha (ECHCG [4]; Echinochloa crus-galli, 504 h)?
**A.** 100%

**Q.** What about the pest or weed control at 20 g/ha (MATIN [5]; Tripleurospermum inodorum, 504 h, dosage 20 g/ha) of the same compound?
**A.** 90%

**Q.** And the pest or weed control at 80 g/ha (MATIN [5]; Tripleurospermum inodorum, 504 h, dosage 80 g/ha)?
**A.** 100%

**Q.** And the pest or weed control at 80 g/ha (PHBPU [6]; Ipomoea purpurea, 504 h)?
**A.** 80%

**Q.** And the pest or weed control at 80 g/ha (POLCO; Fallopia convolvulus, 504 h)?
**A.** 80%

**Q.** What about the pest or weed control at 20 g/ha (SETVI [7]; [21]) of the same compound?
**A.** 90%

**Q.** And the pest or weed control at 80 g/ha (SETVI [7]; Setaria viridis, 504 h, dosage 80 g/ha)?
**A.** 100%

**Q.** What about the pest or weed control at 80 g/ha (VERPE [8]; Veronica persica, 504 h, dosage 80 g/ha) of the same compound?
**A.** 90%

**Q.** And the pest or weed control at 80 g/ha (VIOTR [9]; Viola tricolor, 504 h, dosage 80 g/ha)?
**A.** 100%

**Q.** What about the pest or weed control at 5 g/ha (ABUTH [10]; Abutilon theophrasti, 504 h, dosage 5 g/ha) of the same compound?
**A.** 90%

**Q.** And the pest or weed control at 20 g/ha (ABUTH [10]; Abutilon theophrasti, 504 h, dosage 20 g/ha)?
**A.** 90%

**Q.** And the pest or weed control at 20 g/ha (ALOMY [11]; Alopecurus myosuroides, 504 h)?
**A.** 90%

**Q.** What about the pest or weed control at 20 g/ha (AMARE [12]; Amaranthus retroflexus, 504 h) of the same compound?
**A.** 100%

**Q.** And the pest or weed control at 20 g/ha (MATIN [14]; Tripleurospermum inodorum, 504 h)?
**A.** 80%

**Q.** And the pest or weed control at 5 g/ha (SETVI [16]; Setaria viridis, 504 h, dosage 5 g/ha)?
**A.** 90%

**Q.** And the pest or weed control at 20 g/ha (SETVI [16]; [21])?
**A.** 90%

**Q.** What about the pest or weed control at 5 g/ha (VERPE [17]; Veronica persica, 504 h, 5 g/ha) of the same compound?
**A.** 90%

**Q.** What about the pest or weed control at 20 g/ha (VERPE [17]; Veronica persica, 504 h, 20 g/ha) of the same compound?
**A.** 90%

**Q.** What about the pest or weed control at 5 g/ha (VIOTR [18]; Viola tricolor, 504 h, 5 g/ha) of the same compound?
**A.** 90%

**Q.** And the pest or weed control at 20 g/ha (VIOTR [18]; Viola tricolor, 504 h, 20 g/ha)?
**A.** 90%
